From publication PMC7734281, “Functionalized Oxoindolin Hydrazine Carbothioamide Derivatives as Highly Potent Inhibitors of Nucleoside Triphosphate Diphosphohydrolases” (Frontiers in Pharmacology, 2020)
Entries after “also recorded” stand apart in the source; their conditions may differ.

Columns and labels:
h-NTPDase8 = biological target: T1, h-NTPDase8 (Homo sapiens, UniProt Q5MY95); experiment: h-NTPDase8 inhibition, malachite green assay; type: biochemical; details: Lineweaver-Burk plot
T1 construct: made in house; host or cells: COS-7 cells, transient transfection; crude protein extract after sonication
T1 sequence (Q5MY95 1-495): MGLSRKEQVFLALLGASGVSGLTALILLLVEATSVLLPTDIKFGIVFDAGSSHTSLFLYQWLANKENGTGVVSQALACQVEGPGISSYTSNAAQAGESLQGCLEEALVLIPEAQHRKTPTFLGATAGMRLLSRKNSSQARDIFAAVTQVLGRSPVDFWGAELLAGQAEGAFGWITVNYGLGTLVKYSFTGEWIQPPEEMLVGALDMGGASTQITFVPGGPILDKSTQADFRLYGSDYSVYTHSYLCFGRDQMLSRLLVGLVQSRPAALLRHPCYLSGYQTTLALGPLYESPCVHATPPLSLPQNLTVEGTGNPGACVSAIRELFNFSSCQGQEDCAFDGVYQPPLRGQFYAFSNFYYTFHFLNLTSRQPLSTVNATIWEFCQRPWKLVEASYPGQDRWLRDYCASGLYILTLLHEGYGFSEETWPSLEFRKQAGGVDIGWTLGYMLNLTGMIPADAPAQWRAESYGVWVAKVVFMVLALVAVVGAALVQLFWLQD

NTPDase3 mRNA = NTPDase3 mRNA expression in mice islets by real time qPCR; type: cell-based
Experimental: Freshly isolated mice islets were incubated in KRBB at 37°C with glucose (3 mM). After 45 min, these islets were treated with test compounds in KRBB at 37°C for 3 h, in the presence of stimulatory glucose concentration. Once the incubation was complete, supernatant was removed carefully, and RNA was extracted from these islets.
Total RNA was extracted using TRIzol reagent, according to manufacturer’s instruction. The concentration of isolated RNA was quantified by using Lvis plate method (FLUOstar Omega, BMG Labtech, Ortenberg, Germany). This RNA was then reverse transcribed to cDNA in a total reaction volume of 20 µl. Briefly, a reaction mixture containing RNA (1 µg) and oligo-dT (20 μM, 1 µl) was prepared and volume was adjusted to 12 µl with nuclease free water. The prepared mixture was incubated at 65°C for 5 min and then immediately chilled on ice. Afterward, 8 µl of master mix containing 5X reaction buffer (4 µl), rnase inhibitor (1 µl), dNTPs mix (10 mM, 2 µl) and reverse transcriptase (1 µl) was added to above sample. After gentle pipetting, sample was run under following conditions: 25°C for 5 min, 42°C for 70 min and 70°C for 5 min. Once the cDNA was synthesized, real time quantitative PCR was conducted by using PikoReal 96 Real-Time PCR system (Thermo Scientific, Vantaa, Finland). […] Relative expression was determined by normalization to β actin mRNA by ΔΔCT method.

Mode of inhibition of h-NTPDase8 (h-NTPDase8) | SMILES | Effect on expression level of β-actin (housekeeping gene) (NTPDase3 mRNA; mice islets treated 3 h) | Effect on NTPDase3 gene expression (mRNA) (NTPDase3 mRNA; mice islets treated 3 h at stimulatory glucose, normalized to β actin, versus control)
competitive | O=C1Nc2ccccc2/C1=N/NC(=S)Nc1ccc(Cl)cc1 [8c, (Z)-N-(4-chlorophenyl)-2-(2-oxoindolin-3-ylidene)hydrazine-1-carbothioamide] |  | 
 | CCNC(=S)N/N=C1\C(=O)Nc2ccccc21 [8m, (Z)-N-ethyl-2-(2-oxoindolin-3-ylidene)hydrazine-1-carbothioamide] | not affected | no significant effect (p > 0.05); also recorded: had not suppressed the gene expression of NTPDase3; also recorded: without affecting the NTPDase3 gene expression
